# Tests used:
# [1] = test system: primary AML BMMNC; assay: Ex vivo combination treatment of primary AML BMMNC (FACS, imaging, qPCR); assay type: cell-based, human; conditions: 80 nM GILT
# Protocol: Whether targeting the MIF-CXCR2 signaling pathway would effectively treat AML blasts were investigated. First, the combination of GILT with ribosomal protein S19 (RPS19) on MV4-11 blasts was tested in vitro. RPS19, a MIF inhibitor, has been reported to suppress cisplatin-activated MIF-CD74-NFκB signaling pathway in acute kidney injury. […] The combination of 80 nM GILT with 50 uM SB225002, a CXCR2-inhibitor (CXCR2-I) on MV4-11 blasts in vitro were examined. […] The anti-leukemic effect of combining GILT with CXCR2-I on primary BMMNC ex vivo were examined. […] There may be alternative cytokine pathways compensating for the defect of MIF-CXCR2 pathways.
# The combination of 80 nM GILT and 50 uM BAY11-7821 (a NFκB-I) was tested as a novel therapeutic approach for AML.
# Next, the anti-leukemic effect of the combination was examined on primary BMMNC from refractory AML patients (Patient #7, Table 4).
# Human Samples. AML bone marrow (BM) mononuclear cells (BMMNC) (Patients #1-7, Table 4) were obtained from the City of Hope National Medical Center (COHNMC). All donor patients signed an informed consent form. Sample acquisition was approved by the Institutional Review Boards at the LLUMC and the COHNMC in accordance with an assurance filed with and approved by the Department of Health and Human Services, and it met all requirements of the Declaration of Helsinki.
# For MIF in vitro experiments, different doses of MIF were added to 1 ml of 1×10^6 MV4-11 cells or RAW264.7 cells for each experimental group in 24-well plates. Two days after the one dose treatment, cells were then collected for either analyses by FACS and qPCR. As combination agents to treat blasts in vitro or ex vivo, one dose of 80 nM GILT with one dose of different inhibitors were added to 1 ml of 1×10^6 MV4-11 cells or 1 ml of 0.5-1×10^6 primary AML BMMNC for each experimental group in 24-well plates. Dose-dependent experiments of CXCR2 inhibitor and NFκB inhibitor with or without 80 nM GILT were performed. […] Three days after the one dose treatment, cells were then collected for either analyses by FACS and qPCR.
# (§1) Flow Cytometry (FACS). Cells were harvested and examined for the expression of cell surface biomarkers (CD) and intracellular proteins by multichromatic FACS as previously described. About 1×10^4˜10^6 cells in 100 μl FACS buffer (PBS containing 1% FBS and 0.05% sodium azide) were stained with various fluorescence-conjugated antibodies specific for the desired cell surface proteins at 4° C. for 30 min. The surface-stained cells were then fixed and permeabilized using the appropriate reagents (e.g. the BD Pharmingen Cytofix/Cytoperm buffer) and stained with different fluorescence-conjugated antibodies specific for the desired intracellular proteins at 4° C. for 2 hours in the permeabilizing buffer (e.g. the BD Perm/Wash buffer). Concentrations of the Abs were used per the manufacturers' recommendations. Finally, the cells were washed twice in the permeabilizing buffer and twice in the FACS buffer before being analyzed on the BD FACSAria II. Data was analyzed using the FlowJo software (Tree Star Inc., Ashland, OR).
# RNA Isolation and Real-Time Polymerase Chain Reaction (qPCR) analysis. MV4-11 and MOLM-14 cells were cultured with the presence of TKI drugs for 72 hours or re-plated 28 days after the treatment of TKI drugs. Cells were isolated for RNA isolation and qPCR analysis as previously described. Total RNA was isolated using the RNeasy Micro Kit (Qiagen) according to the manufacturer's instruction. First-strand cDNA was synthesized using the SuperScript III Reverse Transcriptase (Invitrogen; Life Technologies). With an Applied Biosystems 7900HT Real-Time PCR machine, qPCR was performed and analyzed using known primers for the specific markers. The PCR conditions were 10 minutes at 95° C. followed by 40 cycles of 10 seconds at 95° C. and 15 seconds at 60° C. The relative expression level of a gene was determined using the ΔΔCt method and normalized to GAPDH.
# [2] = test system: MV4-11 cells; assay: FACS of TKI-treated MV4-11 cells in vitro (viable blasts, Ki67, pBAD); assay type: cell-based, human; conditions: 3 days after one dose of 80 nM TKI; vs non-treatment controls
# Protocol: The AML cells were analyzed at different time points after exposure to TKI (3 days, 10 days, 20 days, and 28 days). […] After 3 days, FACS of the surface markers and intracellular proteins, including CD14, CD33, CD44, and Ki67, were performed. FIGS. 1A-1E depicts therapeutic effect of different TKIs on MV4-11 and MOLM-14 cells in vitro (N=6). […] The circles indicate the group of viable blasts located in a FACS plot and green arrows indicate the dying tendency of blasts which will become positive for viability dye during the next few days. FIGS. 1C and 1D are graphical representations of the cumulative FACS percentage data of viable MV4-11 and MOLM-14 cells. *P<0.05. […]
# as §1, with “Cells were harvested and examined for the expression of cell surface biomarkers (CD) and intracellular proteins by multichromatic FACS as previously described.” left out, “Concentrations of the Abs were used per the manufacturers' recommendations.” left out, “Data was analyzed using the FlowJo software (Tree Star Inc., Ashland, OR).” left out
# [3] = test system: MV4-11; conditions: cited from earlier work
# [4] = newly diagnosed AML, Patient #5, 50 uM BAY11-7821
# [5] = primary BMMNC ex vivo (Patient #2 and #3), 50 uM CXCR2-I
SMILES,"percentage of Ki67+CD33+ proliferating blasts [1, 4]","percentage of viable CD33+CD13+ primary blasts [1, 4]","percentage of Ki67+CD13+ blasts [1, 5]","percentage of viable CD33+CD13+ primary blasts [1, 5]",viable MV4-11 blasts (FACS) [2],dose at which suppression of tumorigenic clustering and c-Kit starts [3]
"CCc1nc(C(N)=O)c(Nc2ccc(N3CCC(N4CCN(C)CC4)CC3)c(OC)c2)nc1NC1CCOCC1 [GILT, Gilteritinib]",73.3%,35.8%,60%,7.14%,–,–
"CC(C)(C)c1cc(NC(=O)Nc2ccc(-c3cn4c(n3)sc3cc(OCCN5CCOCC5)ccc34)cc2)no1 [QUIZ, Quizartinib]",–,–,–,–,more effective,80 nM
